In this assay the target is T1, MD-2 (TLR4/MD-2 complex) (Homo sapiens, UniProt Q9Y6Y9).
T1 construct: gene LY96; Recombinant human TLR4/MD2 complex; with TLR4
Description: SPR (Biacore X100) on immobilized recombinant human TLR4/MD-2; agonism supported in HEK-Blue hTLR4 cells. The format is binding. (In general: In SPR one partner is held on a chip, and binding of the other changes the refractive index at the surface.)

T1 sequence (Q9Y6Y9 19-160): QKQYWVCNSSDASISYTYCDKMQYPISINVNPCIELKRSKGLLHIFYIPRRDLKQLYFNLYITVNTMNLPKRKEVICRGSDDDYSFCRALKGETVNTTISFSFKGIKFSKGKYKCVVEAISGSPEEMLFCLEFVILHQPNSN
T1 sequence (O00206 24-839 partner): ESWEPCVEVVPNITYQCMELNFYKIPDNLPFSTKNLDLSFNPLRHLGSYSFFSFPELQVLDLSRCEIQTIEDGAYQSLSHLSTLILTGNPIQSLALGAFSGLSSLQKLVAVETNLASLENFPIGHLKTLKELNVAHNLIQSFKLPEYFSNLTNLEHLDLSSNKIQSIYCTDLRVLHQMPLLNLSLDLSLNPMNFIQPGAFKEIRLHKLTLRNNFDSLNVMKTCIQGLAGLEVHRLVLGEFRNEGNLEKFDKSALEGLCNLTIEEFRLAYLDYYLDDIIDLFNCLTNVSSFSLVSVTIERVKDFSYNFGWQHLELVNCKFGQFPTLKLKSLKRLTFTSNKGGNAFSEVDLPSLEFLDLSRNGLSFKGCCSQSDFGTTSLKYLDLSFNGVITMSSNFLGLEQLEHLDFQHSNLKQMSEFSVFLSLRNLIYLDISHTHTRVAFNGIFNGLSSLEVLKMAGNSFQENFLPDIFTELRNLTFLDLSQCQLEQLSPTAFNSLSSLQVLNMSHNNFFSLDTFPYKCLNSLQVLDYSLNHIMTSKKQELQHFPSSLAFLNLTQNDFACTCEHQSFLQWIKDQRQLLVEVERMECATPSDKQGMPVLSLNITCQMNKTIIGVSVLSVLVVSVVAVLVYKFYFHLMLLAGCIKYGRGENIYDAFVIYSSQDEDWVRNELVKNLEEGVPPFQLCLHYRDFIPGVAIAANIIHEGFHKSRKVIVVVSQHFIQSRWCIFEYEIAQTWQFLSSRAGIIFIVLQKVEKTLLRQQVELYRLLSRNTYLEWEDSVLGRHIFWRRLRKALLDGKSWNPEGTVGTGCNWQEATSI

Turning to `CCCCCCCCCCCCCC(=O)N[C@H]1[C@@H](OP(=O)(O)O)O[C@H](CO)[C@@H](OC(=O)CCCCCCCCCCCCC)[C@@H]1OC(=O)CCCCCCCCCCCCC` [FP11], the Kd (usually the free concentration of one partner at which half of the binding sites on the other are occupied at equilibrium, for simple one-to-one binding) amounted to 180 nM. With `CCCCCCCCCCCC(=O)N[C@H]1[C@@H](OP(=O)(O)O)O[C@H](CO)[C@@H](OC(=O)CCCCCCCCCCC)[C@@H]1OC(=O)CCCCCCCCCCC` [FP18] the figure was 570 nM.

The values above are taken from publication PMC8404200, “Synthetic Glycolipids as Molecular Vaccine Adjuvants: Mechanism of Action in Human Cells and In Vivo Activity” (Journal of Medicinal Chemistry, 2021).
